“And” between values parts separate entries of the source, which are not always exact repeats. Equal entries are not always repeated. Where two headings read alike, the source gives them in different places. Marks after values point to notes of the source that are not given here.
Legend:
in vivo = details: cynomolgus, cynomolgus monkey, po
[1] = Plasma PK of metabolites in non-human primates after oral Compound 2A; details: cynomolgus, cynomolgus monkey, in vivo, 30 mg/kg
[2] = tested on: human nasal epithelial cells
[3] = tested on: human bronchial epithelial cells
HCoV-229E [4] = experiment: microbe, parasite or virus in culture; type: cell-based, human coronavirus alpha-229E; details: for EC50: Huh-7, read-out: Neutral Red Assay EC50
Huh-7 cells = details: human
[5] = Prediction of human tissue levels of triphosphate from monkey tissue levels
Method: Based on the ratio (7.0) of human to monkey concentrations of triphosphate Compound 1-6 as assessed by its in vitro formation in primary hepatocytes, the predicted human tissue level was determined.

[6] = Lung, kidney and liver tissue levels in non-human primates after oral Compound 2A; type: in vivo, cynomolgus monkeys; details: for half-life: after oral Compound 2A 30 mg/kg BID for 3 days; for trough (12 h) tissue level: 12 hours after the last dose of Compound 2A
Method: (This corresponds to 55 ng/g (lung), 57 ng/g (kidney), and 43 ng/g (liver)). […] Plasma tough level of Compound 1-7, the surrogate for Compound 1-6 in plasma, was 39 ng/mL.

[7] = tested on: human bronchial epithelial cells; experiment: Triphosphate levels in human bronchial epithelial cells after 8 h exposure and washout; details: for Mean Intracellular Compound 1-6 Concentration: bronchial cells, 10 μM Compound 1A for 8 h
monkey hepatocytes = experiment: Triphosphate levels in monkey hepatocytes; type: in vitro ADME; details: 10 μM Compound 1A
human hepatocytes = experiment: Triphosphate levels in human hepatocytes; type: in vitro ADME; details: for Mean Intracellular Compound 1-6 Concentration: human hepatocytes, 10 μM Compound 1A
[8] = tested on: human nasal epithelial cells; experiment: Triphosphate levels in human nasal epithelial cells after 8 h exposure and washout
SARS-CoV-2 (WA1) = experiment: microbe, parasite or virus in culture; type: cell-based; details: for EC90: Severe acute respiratory syndrome coronavirus 2, HAE
in vitro = details: human
HCoV-229E [9] = experiment: Protection of BHK-21 cells from virus-induced cytopathogenicity (MTT); type: cell-based, human coronavirus; details: Human coronavirus 229E, read-out: EC50
Method: (§1) After a 3-day incubation at 37° C. cell viability was determined by the MTT method as described by Pauwels et al. (J. Virol. Methods 1988, 20, 309-321).
In an initial screening, BHK-21 cells acutely infected with a seasonal human alpha coronavirus, HCoV-229E, were exposed to serial dilutions of Compound 1A. […] No toxicity was detected from either drug.
(§2) BHK-21 cells: Test compounds were dissolved in DMSO at 100 mM and then diluted in Minimum Essential Medium with Earle's salts (MEM-E) containing 1 mM sodium pyruvate and 25 μg/mL kanamycin, supplemented with 10% FBS (growth medium) to final concentrations of 100, 20, 4 and 0.8 μM (two 24-well replica plates each). After BHK-21 cells were grown to confluency in 96-well plates, growth medium was replaced with fresh maintenance medium (growth medium with 1% inactivated FBS in place of 10% FBS) containing serially diluted test compound and HCoV-229E at a multiplicity of infection (MOI) of 0.01. Uninfected cells in the presence of serially diluted compound were used to assess the cytotoxicity of compounds. After a 3-day incubation at 37° C. in a humidified 5% CO2 atmosphere, cell viability was determined by the MTT method (Pauwels, R et al. J. Virol. Methods 20(4):309-321 (1988)).

HCoV = experiment: Protection of MES-1 cells from virus-induced cytopathogenicity (MTT); type: cell-based; details: unidentified human coronavirus, 72 h, 50% protection of MES-1 cells, day 3 post-infection
Method: as §1

mock infected BHK cells = experiment: Cytotoxicity in mock infected BHK-21 cells (MTT); type: cell-based, hamster; details: mock infected BHK cells; MTT; 3 days; Table 2B
Method: (§3) To determine the cytotoxicity, cells were seeded at an initial density of 1×10^6 cells/mL in 96 well plates containing Minimum Essential Medium with Earles's salts (MEM-E), L-glutamine, 1 mM sodium pyruvate and 25 mg/L kanamycin, supplemented with 10% fetal bovine serum. Cell cultures were then incubated at 37° C. in a humidified 5% CO2 atmosphere in the absence or presence of serial dilutions of test compounds. Cell viability was determined by the MTT method.
as §2

[10] = Cytotoxicity in mock infected BHK-21 cells (MTT); type: cell-based, hamster; details: hamster
Method: as §3, §2

[11] = Cytotoxicity in mock infected MES-1 cells (MTT); type: cell-based; details: Table 3A
Method: as §3

[12] = tested on: mock infected MES-1 cells; experiment: Cytotoxicity in mock infected MES-1 cells (MTT); type: cell-based; details: 3 days, Table 3B
Method: as §3

HCV = details: HCV-infected subjects, cited from earlier work
[13] = Human coronavirus 229E, Huh-7, read-out: Virus Yield Reduction Assay EC90
[14] = read-out: Virus Yield Reduction Assay EC90
[15] = BHK, 72 h, 50% protection of BHK cells, MTT, day 3 post-infection, Table 2A
[16] = BHK, 72 h, 50% protection of BHK cells, MTT, day 3 post-infection, Table 2B
[17] = mock infected BHK-21 cells, mock infected BHK cells, MTT, 3 days, Table 2A

In the case of `C[C@@]1(F)[C@H](O)[C@@H](CO)O[C@H]1n1cnc2c(=O)[nH]c(N)nc21` [Compound 1-7, 2-amino-9-((2R,3R,4R,5R)-3-fluoro-4-hydroxy-5-(hydroxymethyl)-3-methyltetrahydrofuran-2-yl)-1,9-dihydro-6H-purin-6-one], the concentration at 12 h (in vivo) is reported as 39 ng/mL, the AUC(0-t) (in vivo; 30 mg/kg) is reported as 0.47 µM·h and the half-life (in vivo; 30 mg/kg) is reported as 17 h. For the same compound, the Cmax [1] was 160 nM and the Tmax [1] was 2 h.
In the case of `Nc1ccn([C@@H]2O[C@@](CO)(CCl)[C@@H](O)[C@H]2F)c(=O)n1` [ALS-8112], the “ratio of triphosphate from Compound 1A vs. the named drug” value [2] is reported as 3 and the “ratio of triphosphate from Compound 1A vs. the named drug” value [3] is reported as 5.
In the case of `CCN(CCO)CCCC(C)Nc1ccnc2cc(Cl)ccc12` (stereo not drawn) [hydroxychloroquine, reference compound], the “Selectivity Index (CC50/EC50)” value (HCoV-229E [4]) is reported as 3.5^c, the EC50 (HCoV-229E [4]; Human coronavirus 229E) is reported as 7.4 µM and the EC90 (HCoV-229E [4]; [13]) is reported as < 0.05 µM. For the same compound, the EC90 (HCoV-229E [4]; [14]) was < 0.048 µM and the CC50 (Huh-7 cells) was 26 µM.
For `C[C@@]1(F)[C@H](O)[C@@H](COP(=O)(O)OP(=O)(O)OP(=O)(O)O)O[C@H]1n1cnc2c(=O)[nH]c(N)nc21` [Compound 1-6], the “Predicted Intracellular Triphosphate 1-6 Conc. at 12 hours Post-dose” value [5] was 0.62 µM and 0.91 µM and 0.98 µM, the “predicted human lung intracellular level at trough (12 h) relative to in vitro EC90” value ([5]; 1100 mg LD + 550 mg BID, EC90 against SARS-CoV-2 in HAE cell cultures) was “above the in vitro EC90” and the half-life ([6]; monkey kidney tissue) was 8.0 h. The “trough (12 h) tissue level” value ([6]; monkey kidney) was 57 ng/g, the “Mean Intracellular Compound 1-6 Concentration” value ([6]; monkey kidney, 12 h post last dose of Compound 2A) was 0.13 µM and the “Mean Intracellular Compound 1-6 Concentration” value ([6]; monkey kidney, 24 h post last dose of Compound 2A) was 0.032 µM. For the same compound, the “Mean Intracellular Compound 1-6 Concentration” value ([6]; monkey kidney, 48 h post last dose of Compound 2A) was 0.004 µM, the half-life ([6]; monkey liver tissue) was 4.3 h and the “trough (12 h) tissue level” value ([6]; monkey liver) was 43 ng/g. The “Mean Intracellular Compound 1-6 Concentration” value ([6]; monkey liver, 12 h post last dose of Compound 2A) was 0.09 µM and 0.089 µM, the “Mean Intracellular Compound 1-6 Concentration” value ([6]; monkey liver, 24 h post last dose of Compound 2A) was 0.021 µM and the “Mean Intracellular Compound 1-6 Concentration” value ([6]; monkey liver, 48 h post last dose of Compound 2A) was “Not Detected”. The half-life ([6]; monkey lung tissue) was 9.4 h, the “trough (12 h) tissue level” value ([6]; monkey lung) was 55 ng/g and the “Mean Intracellular Compound 1-6 Concentration” value ([6]; monkey lung, 12 h post last dose of Compound 2A) was 0.14 µM. For the same compound, the “Mean Intracellular Compound 1-6 Concentration” value ([6]; monkey lung, 24 h post last dose of Compound 2A) was 0.037 µM, the “Mean Intracellular Compound 1-6 Concentration” value ([6]; monkey lung, 48 h post last dose of Compound 2A) was 0.009 µM and the “triphosphate concentration in the lung compared to the liver” value ([6]; monkey, 12-hour steady-state trough, oral Compound 2A 30 mg/kg BID) was 1.6 fold. For the same compound, the “Mean Intracellular Compound 1-6 Concentration” value ([7]; 15 h after washout) was 560 µM, the “Mean Intracellular Compound 1-6 Concentration” value ([7]; 48 h after washout) was 290 µM and the half-life ([7]; intracellular triphosphate in bronchial cells after exposure to 10 μM Compound 1A) was 39 h. For the same compound, the half-life ([7]; intracellular triphosphate in bronchial epithelial cells after Compound 1A) was “over 1.5 days”, the half-life ([7]; intracellular triphosphate in bronchial epithelial cells after Compound 1A, listed as active triphosphate species) was “greater than 1.5 days” and the “Mean Intracellular Compound 1-6 Concentration” value (monkey hepatocytes; incubation 2 h) was 2.1 µM. For the same compound, the “Mean Intracellular Compound 1-6 Concentration” value (monkey hepatocytes; incubation 4 h) was 3.1 µM, the “Mean Intracellular Compound 1-6 Concentration” value (monkey hepatocytes; incubation 8 h) was 2.9 µM and the “Mean Intracellular Compound 1-6 Concentration” value (monkey hepatocytes; incubation 24 h) was 1.7 µM. For the same compound, the “ratio of human to monkey hepatocyte triphosphate concentrations” value (human hepatocytes; assessed by AUC0-24 values) was 7 fold and 7.0 fold, the “Mean Intracellular Compound 1-6 Concentration” value (human hepatocytes; incubation 2 h) was 14 µM and the “Mean Intracellular Compound 1-6 Concentration” value (human hepatocytes; incubation 4 h) was 22 µM. The “Mean Intracellular Compound 1-6 Concentration” value (human hepatocytes; incubation 8 h) was 26 µM, the “Mean Intracellular Compound 1-6 Concentration” value (human hepatocytes; incubation 24 h) was 17 µM and the half-life ([8]; intracellular triphosphate in nasal cells after exposure to 10 μM Compound 1A) was 38 h. The half-life ([8]; intracellular triphosphate in nasal epithelial cells after Compound 1A) was “over 1.5 days”, the half-life ([8]; intracellular triphosphate in nasal epithelial cells after Compound 1A, listed as active triphosphate species) was “greater than 1.5 days” and the “Mean Intracellular Compound 1-6 Concentration” value ([8]; nasal cells, 10 μM Compound 1A for 8 h, 24 h after washout) was 170 µM.
With `O=c1nc(NO)ccn1[C@@H]1O[C@H](CO)[C@@H](O)[C@H]1O` [N^4-hydroxycytidine, reference compound] the “Selectivity Index” value (SARS-CoV-2 (WA1)) was >5.1, the EC90 (SARS-CoV-2 (WA1); read-out: EC90 of the single replicates) was 4.7 µM and the EC90 (SARS-CoV-2 (WA1); [14]) was 3.9 µM. The CC50 (in vitro) was > 19 µM.
`CNc1nc(N)nc2c1ncn2[C@@H]1O[C@H](CO[P@](=O)(N[C@@H](C)C(=O)OC(C)C)Oc2ccccc2)[C@@H](O)[C@@]1(C)F` [Compound 1B] showed an EC50 (HCoV-229E [9]; [15]) of 2.5 µM, an EC50 (HCoV-229E [9]; [16]) of 2.9 µM and an EC50 (HCoV; Table 3A) of 2 µM. For the same compound, the EC50 (HCoV; Table 3B) was 2.2 µM, the CC50 (mock infected BHK cells) was > 100 µM and the CC50 at 3 days [10, 17] was > 100 µM. The CC50 at 3 days [11] was > 100 µM and the CC50 [12] was > 100 µM.
In the case of `CNc1nc(N)nc2c1ncn2[C@@H]1O[C@H](CO[P@@](=O)(N[C@@H](C)C(=O)OC(C)C)Oc2ccccc2)[C@@H](O)[C@@]1(C)F` [Compound 2A], the efficacy (HCV) is listed as “high rate of efficacy” and the safety and tolerability (HCV; up to 12 weeks) is listed as “safe and well-tolerated”.
With `CC(C)OC(=O)[C@H](C)N[P@](=O)(OC[C@H]1O[C@@H](n2ccc(=O)[nH]c2=O)[C@](C)(F)[C@@H]1O)Oc1ccccc1` [sofosbuvir, reference compound] the EC50 (HCoV-229E [9]; [15]) was > 100 µM, the EC50 (HCoV-229E [9]; [16]) was > 100 µM and the EC50 (HCoV-229E [9]; BHK-21, HCoV-229E in BHK-21, dye staining, average of 2 experiments, Table 5) was > 100 µM. For the same compound, the EC50 (HCoV; Table 3A) was > 100 µM, the EC50 (HCoV; Table 3B) was > 100 µM and the CC50 (mock infected BHK cells) was > 100 µM. For the same compound, the CC50 at 3 days [10, 17] was > 100 µM, the CC50 at 3 days ([10]; uninfected BHK-21 cells, BHK-21, Table 5) was > 100 µM and the CC50 at 3 days [11] was > 100 µM. For the same compound, the CC50 [12] was > 100 µM.
For `CCN(CC)CCCC(C)Nc1ccnc2cc(Cl)ccc12` (stereo not drawn) [chloroquine, reference compound], the EC50 (HCoV-229E [4]; Human coronavirus 229E) was 8.1 µM, the EC90 (HCoV-229E [4]; [13]) was < 0.05 µM and the CC50 (Huh-7 cells) was 21 µM.

Source: patent publication US10874687B1 (Atea Pharmaceuticals, Inc., priority 2020, dated 2020)
